Measurements as given in patent publication US8361968B2 (Takeda Pharmaceutical Company Limited, priority 2002, dated 2013).
Like-named read-outs stand apart in the source and are kept apart here. Square brackets hold non-standard residues; d marks the D form. Peptide text beside a SMILES is read from it. * marks the point of attachment. Propanoyl(3-(3-pyridyl)) = O=C(CCc1cccnc1)*; Arg(Me) = CNC(=N)NCCC[C@H](N)C(=O)O; d4Pal = N[C@H](Cc1ccncc1)C(=O)O; azaGly = NNC(=O)O

What was measured:
[1] = system: hOT7T175-expressed CHO cells; format: cell-based
Method: Assay for Cell Growth Inhibition Activity in hOT7T175-Expressed Cho Cells hOT7T175-Expressed CHO cells (hereinafter hOT7T175) were cultured in DMEM supplemented with 10% dialyzed FBS (hereinafter 10% dFBS/DMEM), which was used for the following assay. The hOT7T175 was suspended in 10% dFBS/DMEM at 10,000 cells/ml. The cells were plated on a 96 well plate at 100 μL each/well (1,000 cells/well), followed by culturing overnight at 37° C. in a 5% CO2 incubator. On the following day, the medium was removed and 90 μL of 10% dFBS/DMEM supplemented with 0.5% BSA (hereinafter, 0.5% BSA/10% dFBS/DMEM) was added. […] After 10 μL of Cell Counting Kit-8 solution (Dojin Chemical Laboratory) was added to each well, incubation was performed at 37° C. in a 5% CO2 incubator for 4 hours and absorbance was measured at 450 nm.

[2] = system: human colonic carcinoma-derived cell line SW620; test: Tumor growth inhibition activity in tumor-bearing mice with SW620; format: in vivo; details: for tumor growth inhibition (tumor size) compared to the vehicle group: SW620 tumor-bearing BALB/cAnN-nu mice, s.c. osmotic pump
Method: The abscissa denotes the number of days after injection. The bar on the abscissa designates a dosing period. The ordinate denotes a tumor size (mm^3).
Evaluation of Tumor Growth Inhibition Activity
On the following day, human colonic carcinoma-derived cell line SW620 (ATCC) was dissolved in 20 mM phosphate buffered saline (pH 7.2)(PBS) containing 200 μL of 0.15M NaCl at a density of 2×10^6 cells. The resulting solution was subcutaneously injected into the left flank of the mice above. The day when the cells were injected was made Day 0. Tumor was measured with an electronic caliper every other or 2 other days during Days 4 to 13 from the cell administration, and tumor size was calculated by the following equation: […].

rats = test: Effect of metastin derivatives on blood glucose level and blood glucagon level; format: in vivo; details: for blood glucose level: i.v. 80 nmol/kg (FIG. 10); for blood glucagon level: i.v. 80 nmol/kg (FIG. 11)
Excerpt: The value indicates (mean±SE) (n=5). The symbol * designates that the P-value is 0.05 or less, when compared to the saline group and the symbol ** designates that the P-value is 0.01 or less, when compared to the saline group.
In the figure, the symbols, open circle, closed circle and closed triangledesignate the blood glucagon level in the saline group and the group receiving 80 nmol/kg KiSS1-305 (Compound No. 305), the group receiving 80 nmol/kg KiSS1-322 (Compound No. 322), respectively. The value indicates (mean±SE) (n=5). The symbol * designates that the P-value is 0.05 or less, when compared to the saline group.
An operation was performed in free moving mature Wistar male rats (weighing […] at the time of operation) in a manner similar to TEST EXAMPLE 1 to collect blood. After the operation, the animal was maintained overnight. […] To prevent blood clotting, 3 μl of 300 KIU/ml aprotinin solution containing 3 mg/ml EDTA had previously been filled in the syringe. […] Blood was collected from the jugular vein by 300 μl each 2, 5, 15, 30, 45 and 60 minutes starting from the intravenous injection. The collected blood was centrifuged (13,000 rpm, 5 minutes) with a high speed refrigerated centrifuge (MR-150, Tomy Seiko Co., Ltd.) to recover the supernatant (plasma). Glucose level in blood was measured using Fuji Drychem 3500 (FUJI FILM) and glucagon level in blood was measured using a glucagon kit “Daiichi” (Daiichi Radioisotope Laboratories Ltd.), as in TEST EXAMPLE 1 or 2.

in vitro = details: female, Balb/c, mouse, serum
Method: Blood was drawn from Balb/c mice (female) of 8 weeks old, settled at 37° C. for 30 minutes and centrifuged at 13000 rpm for 10 minutes to give the serum as the supernatant. The serum thus obtained was frozen-stored at −80° C.
The stability test was performed by addition of 5 nmol of Compound (5 μL of aqueous solution) to 45 μL of serum and then settlement of the mixture at 37° C. The settlement was made at 3 points of time, including 2, 10 and 30 minutes. The sample after the settlement was boiled for 3 minutes and cooled on an ice bath. After 200 μL of acetonitrile/water (3/1) was added to the sample, the mixture was ultrasonicated for 5 minutes and then centrifuged at 5000 rpm for 1 minute. After 150 μL of the supernatant was diluted with 250 μL of distilled water, insoluble matters were removed by filtration through a filter having a pore size of 0.45 μm and 200 μL of the filtrate was applied on HPLC (220 nm) to determine the peak area of Compound. A ratio of the peak area to the area when Compound was treated for 0 minute under the same conditions was calculated as a mean value in 4 respective runs to determine the residual ratio. Next, by taking the calculated residual ratio on the ordinate and the time on the abscissa, a graph was prepared and approximated by an exponential function.
The preparative HPLC used was the LC-VP series manufactured by Shimadzu Corporation and Wakosil-II 5C18 HG (4.6 mm×100 mm) manufactured by Wako Pure Chemical Industries, Ltd. was used as the column. Eluant A (0.1% TFA-containing water) and eluant B (0.1% TFA-containing acetonitrile) were used as eluants. Analysis was performed by linear density gradient elution (25 minutes) at a flow rate of 1.0 ml/min. using eluants A/B: 100/0-0/50.

Structure (SMILES)	IC50 ([1]; hOT7T175-expressed CHO cells, 3 days culture, Cell Counting Kit-8, read-out: IC50 (M), cell growth inhibition activity) [M]	tumor growth inhibition (tumor size) compared to the vehicle group ([2]; 2.4 nmol/day/mouse×14 days)	tumor growth inhibition (tumor size) compared to the vehicle group ([2]; 24 nmol/day/mouse×14 days)	effect of tumor growth inhibition relative to Metastin ([2]; SW620 tumor-bearing mice, in vivo) [times]	blood glucose level (rats)	blood glucagon level (rats)	half-life at 100 µM (in vitro) [h]	IC50 [1] [M]	tumor growth inhibition compared with the Metastin group ([2]; 24 nmol/day/mouse×14 days, Day 11)
CNC(=N)NCCC[C@H](NC(=O)[C@H](CC(C)C)NC(=O)NNC(=O)[C@H](Cc1ccccc1)NC(=O)[C@H](CO)NC(=O)[C@H](CC(N)=O)NC(=O)[C@@H](Cc1ccncc1)NC(=O)[C@H](N)Cc1ccc(O)cc1)C(=O)N[C@@H](Cc1ccccc1)C(N)=O [Compound No. 305, D-Tyr-D-Pya(4)-Asn-Ser-Phe-AzaGly-Leu-Arg(Me)-Phe-NH2] (H-[dY][d4Pal]NSF[azaGly]L[Arg(Me)]F-NH2)	8.94e-09	significant tumor growth inhibition activity from Days 5 to 11	significant effect of tumor growth inhibition from Days 5 to 9 and on Day 11	10	increase in the blood glucose level	increase in the blood glucagon level	1.11		
CNC(=N)NCCC[C@H](NC(=O)[C@H](CC(C)C)NC(=O)NNC(=O)[C@H](Cc1ccccc1)NC(=O)[C@H](CO)NC(=O)[C@H](CC(N)=O)NC(=O)CCc1cccnc1)C(=O)N[C@@H](Cc1ccccc1)C(N)=O [Compound No. 322, 3-Pyridylpropionyl-Asn-Ser-Phe-AzaGly-Leu-Arg(Me)-Phe-NH2] ({Propanoyl(3-(3-pyridyl))}-NSF[azaGly]L[Arg(Me)]F-NH2)		significant tumor growth inhibition activity in a 1/10 dose (2.4 nmol/day/mouse×14 days) of Metastin from Days 6 to 8	significant tumor growth inhibition activity from Days 6 to 11		increase in the blood glucose level	increase in the blood glucagon level	1.57	7.19e-08	significant tumor growth inhibition activity even when compared with the Metastin group
